# Legend:
# [1] = test system: Npc1−/− mice; experiment: Gait analysis (CatWalk); format: in vivo, mouse; conditions: eight weeks of age
# Procedure: (§1) Separate groups of Npc1^−/− and Npc1^+/+ mice were left untreated, as controls. Gait analysis was performed on mice at eight weeks of age using a CatWalk® 15.0 system according to manufacturer's instructions (Noldus, Nottingham, UK). Five runs were recorded per animal. CatWalk® parameters measured were: • 1. Stand Mean: average duration (s) of paws in contact with glass plate; • 2. Step Cycle: duration (s) between two consecutive contacts of the same paw; • 3. Duty Cycle: percentage of time paws in contact with plate compared with time to complete a step cycle; • 4. Step Sequence (AB): percentage of time spent walking in LF-RH-RF-LH alternating pattern (LF: left front; RH: right hind; RF: right front; LH left hind); • 5. Cadence: step per seconds in a trial; • 6. Diagonal Support: percentage of time with simultaneous contact of diagonal paws with the glass plate (RF&LH or RH&LF). Motor Function Analysis
# [2] = test system: wild-type (Npc1+/+) mice; experiment: Gait analysis (CatWalk); format: in vivo, mouse; conditions: eight weeks of age
# Procedure: as §1
# [3] = test system: fibroblasts from NPC patients; experiment: Relative lysosomal volume via LysoTracker; format: cell-based, human; conditions: 1 mM
# Procedure: A fibroblast cell line from an NPC patient was treated for 3 days with N-acetyl-DL-leucine (1 mM) and relative lysosomal volume was quantified via LysoTracker, a fluorescent dye that accumulates in acidic organelles. Increased LysoTracker fluorescence is indicative of an increase in lysosomal size and/or number, and is a hallmark of NPC cells.
# [4] = test system: patients with multiple system atrophy Parkinson type (MSA-P); experiment: Case studies, multiple system atrophy Parkinson type; format: in vivo, human; conditions: MSA-P Patient 3, after one month
# Description: Medication was stopped. […] The patient evaluated after one month on acetyl-DL-leucine. […] Episodes of mental confusion completely disappeared. The patient's cognitive structure seemed much clearer and straighter. […] The patient's spouse supported continuing the medication.
# [5] = test system: microtubule-associated protein 1A/1B-light chain 3-phosphatidylethanolamine conjugate (LC3-II); experiment: LC3-II levels relative to tubulin loading control; format: in vivo, mouse; conditions: NPC1−/− mice, 0.1 g/kg body weight daily from 3 weeks, sacrificed at 8 weeks
# Procedure: The Niemann-Pick Disease Type C (NPC) mouse model shares a number of pathological features with Alzheimer's disease (AD) as described herein. […] Mice were sacrificed at 8 weeks of age. Levels of amyloid precursor protein C-terminal fragments (APP-CTFs) were evaluated relative to total amyloid precursor protein (APP) levels in the cerebellum for wild type, untreated wild type NPC1^−/− mice, and AL-treated wild type NPC1^−/− mice. Levels of microtubule-associated protein 1A/1B-light chain 3-phosphatidylethanolamine conjugate (LC3-II) were also evaluated relative to levels of tubulin loading control for wild type, untreated wild type NPC1^−/− mice, and AL-treated wild type NPC1^−/− mice.
# [6] = test system: patient with Lewy Body dementia; experiment: Case study, Lewy Body dementia; format: in vivo, human; conditions: Lewy Body dementia patient
# Procedure: The patient started taking acetyl-leucine (3 g/day for one week; 5 g/day thereafter) and was evaluated after four weeks. […] Medication was reduced to 3 g/day, and the patient was instructed to stop medication about two weeks later.
# [7] = test system: Sandhoff disease model, Hexb−/− mouse; experiment: Bar crossing test; format: in vivo; conditions: Sandhoff mice, 0.1 g/kg from 3 weeks of age
# Description: This study made use of a mouse model of Sandhoff disease, the Hexb^−/− mouse, as descrbed in Jeyakumar et al. (Jeyakumar, M. et al. (1999) Proc. Natl. Acad. Sci. USA 96: 6388-6393). The bar crossing test is a method for assessing motor function in mice in which the mouse is placed hanging from the centre of a horizontal bar by its front limbs. A wild-type mouse with normal motor function will be able to engage its hind limbs and thereby move to one of the platforms at either end of the bar, and in doing so complete the test. […] In FIG. 7 B, acetyl-leucine treatment of 0.1 g/kg body weight was provided from 3 weeks of age. The acetyl-leucine treated Sandhoff mice retained the ability to complete the test up to 13 weeks of age (inclusive). Data shown is the mean of 6 mice per group. The treated Sandhoff mice retained the ability to complete the test up to 13 weeks of age (inclusive).
# [8] = test system: person with balance disorder/senile gait disorder; experiment: Case study Example 23; format: in vivo, human
# [9] = test system: patients with amyotrophic lateral sclerosis (ALS); experiment: Case studies, amyotrophic lateral sclerosis; format: in vivo, human
# Description: The results were documented by video.
# [10] = test system: patient with Spinocerebellar Ataxia (SCA) 1; experiment: Case study, Spinocerebellar Ataxia (SCA) 1; format: in vivo, human
# [11] = ALS Patient 1, after a further 20 days
# [12] = ALS Patient 2, after approximately 2 months
smiles,measurement,setting,value
CC(=O)NC(CC(C)C)C(=O)O (racemic) [acetyl-DL-leucine],Gait properties vs untreated littermates,[1],significantly improved gait
same,Gait properties vs untreated littermates,[2],no significant difference in gait properties
same,LysoTracker fluorescence (lysosomal volume),[3]; NPC patient of mild clinical severity,significant decrease in LysoTracker fluorescence
same,LysoTracker fluorescence (lysosomal volume),"[3]; additional NPC patients of variable clinical severity, 72 hours",findings were replicated
same,Cognitive function (reported by wife),[4],significant improvement of cognitive function
same,Gait function,[4],no improvement of gait function
same,LC3-II levels relative to tubulin,[5],lowering of LC3-II
same,Patient report on treatment,"[6]; after four weeks, 3 g/day then 5 g/day",increased fatigue and a deterioration of balance and speech
same,Patient report on decreased dose,[6]; reduced to 3 g/day,did not report improvement of symptomatology with the decreased dose
same,Age up to which ability to complete the bar crossing test was retained (inclusive),[7],up to 13 weeks of age
same,"Motor function and hind-limb mobility/engagement, bar-crossing test",[7],improved motor function and hind-limb mobility/engagement
same,Frequency of falls,[8]; Day 14,significant reduction in the frequency of falls
same,Hypokinetic-rigid syndrome,[8]; Day 14,No change of hypokinetic-rigid syndrome
same,Dizziness symptoms,"[8]; Day 14, 3 then 5 gram per day",improvement of dizziness symptoms
same,Dizziness after suspension,[8]; two days after suspension of treatment,increase of dizziness symptoms
same,Overall symptoms,[9]; ALS Patient 1,improvement in symptoms
same,Speech after stopping treatment,"[9]; ALS Patient 1, about 7 days plus 1-2 additional weeks off treatment",deterioration of speech
same,Speech (patient report),"[9]; ALS Patient 1, after 15 days, 3 then 5 gram per day",significant improvement of speech
same,Paresis of right foot-dorsiflexors / foot drop,[9]; [11],foot drop had improved dramatically
same,Sleep (patient report),[9]; [11],improvement in sleep
same,Speech (patient report),[9]; [11],further improvement of speech
same,Symptomatology after resuming treatment,"[9]; ALS Patient 1, second resumption","improved symptomatology, in particular speech"
same,Motor function of the left hand,[9]; [12],progredient deterioration of the motor function of the left hand
same,Swallowing functions,[9]; [12],remained stable
same,Walking (patient report),[9]; [12],discrete improvement of walking
same,Symptomatology (patient report),"[9]; ALS Patient 3, after one month",did not report improvement of symptomatology
same,Symptomatology after suspension,"[9]; ALS Patient 4, 10 days after therapy was suspended",worsening of symptomatology
same,Symptomatology (patient report),"[9]; ALS Patient 4, after about one month",subjective improvement of dysphagia and less hypersalivation
same,Symptoms,"[10]; three weeks on medication, 5 g/day",all symptoms significantly improved
same,Intensity of signs and symptoms after stop,[10]; two weeks after medication was stopped,the same as before therapy

# From patent US12458614B2, “Therapeutic agents for improved mobility and cognitive function and for treating neurodegenerative diseases and lysosomal storage disorders” (priority 2017, dated 2025)
